The subject of data set [1] is semi-synthetic tbpA aptamer (residues 1-89 + 3' anchoring sequence) (RNA, riboswitch, azide-modified U at 14 (clicked to Cy5)) GUUCUCAACGGGGUGCCACGCGUACGCGUGCGCUGAGAAAAUACCCGUCGAACCUGAUCCGGAUAACGCCGGCGAAGGGAUUUGAGGCUCCCCGGCCCCCCGGCC
Nature of the data set: smFRET (TIRF). To be noted: 20 mM MgCl2, 20 mM NaCl; 1 mM TPP; folded state 14% to 48%; Tris-HCl buffer, pH 7.5.

For data set [2], the system named is 30S ribosomal subunit. Nature of the data set: toeprint (primer extension). To be noted: tRNA-fMet, with TPP; Toeprint buffer, salt, pH and temperature not given in the material; scale: fold decrease of toeprint efficiency vs no TPP.

For the compound `Cc1ncc(C[n+]2csc(CCOP(=O)(O)OP(=O)(O)O)c2C)c(N)n1`, the binding entry in data set [1] is listed as “yes”. Take “tbpA riboswitch nascent transcript (toeprint)”: the binding signal in data set [2] stood at 2.2.

The values are drawn from publication PMC11487190 (2024).
